Data from patent publication US20230125585A1, “DOSING PROTOCOLS AND REGIMENS FOR AMINOSTEROL TREATMENT” (Enterin, Inc., priority 2019, published 2023).
Read-outs that look alike come from different tables or passages of the source.

Assays:
[1] = short term placebo controlled trial, PD constipation; cited from earlier work
α-synuclein protein = α-synuclein protein (Homo sapiens, UniProt P37840); conditions: cited from earlier work
mouse stomach mRNA = experiment: Oral dosing of squalamine (ENT-01) in old mice, stomach transcriptome by RNAseq; format: in vivo
From the text: The present example evaluated the impact of oral dosing of squalamine (ENT-01) on the gastrointestinal (GI) tissue of old mice (78 weeks). […] After 2 weeks of dosing the animals were euthanized, and the GI tracts sectioned into stomach, duodenum, jejunum, ileum, caecum, colon, and rectum. The stomach tissues were then sent for histology, and the transcriptomes analyzed by RNAseq.
The dosing schedule used to determine the effect of orally administered squalamine and MSI-1436 on the GI tracts of young and old mice was as follows. Male C57Bl/6 mice, aged 20 and 78 weeks, were obtained from Jackson labs. Animals were exposed to 12 hr light dark cycles and provided Teklad standard mouse diet and water ad lib.
Animals were dosed once daily by oral gavage in the morning for a total of 14 days. Animals were fasted 3-4 hours prior to dosing and 1 hour following. The test article was dissolved in 0.5% hydroxypropylcellulose in water. On day 15 the animals were euthanized by CO2 asphyxiation, necropsied, and tissues prepared for histology and RNAseq analysis.
The GI tracts of the animals were sectioned into stomach, duodenum, jejunum, ileum, caecum, colon, and rectum. The tissues were then sent for histology, and the transcriptomes analyzed by RNAseq.

[2] = Absorption / oral bioavailability of aminosterols; format: in vivo; conditions: oral administration
[3] = Phase 2a (n = 34), drug related adverse events; format: in vivo, human
[4] = human, in vivo, 25 days
[5] = orally administered; mice with constipation due to overexpression of human αS; cited from earlier work
[6] = intravenous administration; cited from earlier work
[7] = Phase 2(b) study, aminosterol dosage and body position, Parkinson's disease patients
[8] = 15 patients with assessable MMSE improvement

CCCCC(F)(F)[C@@]1(O)CC[C@H]2[C@@H](CC(=O)[C@@H]2CCCCCCC(=O)O)O1 [Lubiprostone]
share of treated in whom effective [1]: about 50%

CC(C)[C@@H](CC[C@@H](C)[C@H]1CC[C@H]2[C@@H]3[C@H](O)C[C@H]4C[C@@H](NCCCNCCCCNCCCN)CC[C@]4(C)[C@H]3CC[C@]12C)OS(=O)(=O)O [aminosterol 1436]
initiation of aggregation of the α-synuclein protein (α-synuclein protein): inhibit the initiation of aggregation

CC(C)[C@@H](CC[C@@H](C)[C@H]1CC[C@H]2[C@@H]3[C@H](O)C[C@H]4C[C@@H](NCCCNCCCCN)CC[C@]4(C)[C@H]3CC[C@]12C)OS(=O)(=O)O [squalamine]
Corneodesmosin mRNA % increase (mouse stomach mRNA; old + Ent-01 vs old mice): 94%
Cornifelin mRNA % increase (mouse stomach mRNA; old + Ent-01 vs old mice): 261%
Dermokine mRNA % increase (mouse stomach mRNA; old + Ent-01 vs old mice): 290%
Filaggrin mRNA % increase (mouse stomach mRNA; old + Ent-01 vs old mice): 671%
H19_imprinted_maternally_expressed_transcript mRNA % increase (mouse stomach mRNA; old + Ent-01 vs old mice): 656%
Hornerin mRNA % increase (mouse stomach mRNA; old + Ent-01 vs old mice): 253%
Loricrin mRNA % increase (mouse stomach mRNA; old + Ent-01 vs old mice): 381%
Myoglobin mRNA % increase (mouse stomach mRNA; old + Ent-01 vs old mice): 437%
Sciellin mRNA % increase (mouse stomach mRNA; old + Ent-01 vs old mice): 219%
caspase_14 mRNA % increase (mouse stomach mRNA; old + Ent-01 vs old mice): 664%
collagen_type_XVII_alpha_1 mRNA % increase (mouse stomach mRNA; old + Ent-01 vs old mice): 256%
cystatin_E/M mRNA % increase (mouse stomach mRNA; old + Ent-01 vs old mice): 491%
desmocollin_1 mRNA % increase (mouse stomach mRNA; old + Ent-01 vs old mice): 104%
desmoglein_1_beta mRNA % increase (mouse stomach mRNA; old + Ent-01 vs old mice): 184%
gap_junction_protein_beta_4 mRNA % increase (mouse stomach mRNA; old + Ent-01 vs old mice): 470%
gap_junction_protein_beta_6 mRNA % increase (mouse stomach mRNA; old + Ent-01 vs old mice): 455%
kallikrein_related-peptidase_7_(chymotryptic_stratum mRNA % increase) (mouse stomach mRNA; old + Ent-01 vs old mice): 847%
keratin_1 mRNA % increase (mouse stomach mRNA; old + Ent-01 vs old mice): 425%
keratin_10 mRNA % increase (mouse stomach mRNA; old + Ent-01 vs old mice): 610%
keratinocyte_differentiation_associated_protein mRNA % increase (mouse stomach mRNA; old + Ent-01 vs old mice): 407%
keratinocyte_expressed_proline-rich mRNA % increase (mouse stomach mRNA; old + Ent-01 vs old mice): 270%
late_cornified_envelope_1A1 mRNA % increase (mouse stomach mRNA; old + Ent-01 vs old mice): 339%
late_cornified_envelope_1A2 mRNA % increase (mouse stomach mRNA; old + Ent-01 vs old mice): 361%
late_cornified_envelope_1B mRNA % increase (mouse stomach mRNA; old + Ent-01 vs old mice): 471%
late_cornified_envelope_1C mRNA % increase (mouse stomach mRNA; old + Ent-01 vs old mice): 338%
late_cornified_envelope_1E mRNA % increase (mouse stomach mRNA; old + Ent-01 vs old mice): 340%
late_cornified_envelope_1F mRNA % increase (mouse stomach mRNA; old + Ent-01 vs old mice): 338%
late_cornified_envelope_1G mRNA % increase (mouse stomach mRNA; old + Ent-01 vs old mice): 197%
late_cornified_envelope_1H mRNA % increase (mouse stomach mRNA; old + Ent-01 vs old mice): 233%
late_cornified_envelope_1I mRNA % increase (mouse stomach mRNA; old + Ent-01 vs old mice): 654%
late_cornified_envelope_1J mRNA % increase (mouse stomach mRNA; old + Ent-01 vs old mice): 296%
late_cornified_envelope_1L mRNA % increase (mouse stomach mRNA; old + Ent-01 vs old mice): 365%
late_cornified_envelope_1M mRNA % increase (mouse stomach mRNA; old + Ent-01 vs old mice): 656%
late_cornified_envelope_3C mRNA % increase (mouse stomach mRNA; old + Ent-01 vs old mice): 130%
late_cornified_envelope_3E mRNA % increase (mouse stomach mRNA; old + Ent-01 vs old mice): 205%
late_cornified_envelope_3F mRNA % increase (mouse stomach mRNA; old + Ent-01 vs old mice): 192%
lectin_galactose_binding_soluble_7 mRNA % increase (mouse stomach mRNA; old + Ent-01 vs old mice): 481%
myosin_binding_protein_C_slow-type mRNA % increase (mouse stomach mRNA; old + Ent-01 vs old mice): 209%
myosin_heavy_polypeptide_1_skeletal_muscle mRNA % increase (mouse stomach mRNA; old + Ent-01 vs old mice): 289%
myosin_heavy_polypeptide_8_skeletal_muscle mRNA % increase (mouse stomach mRNA; old + Ent-01 vs old mice): 371%
myosin_light_chain_phosphorylatable_fast_skeletal mRNA % increase (mouse stomach mRNA; old + Ent-01 vs old mice): 295%
myosin_light_polypeptide_3 mRNA % increase (mouse stomach mRNA; old + Ent-01 vs old mice): 747%
myozenin_1 mRNA % increase (mouse stomach mRNA; old + Ent-01 vs old mice): 524%
myozenin_2 mRNA % increase (mouse stomach mRNA; old + Ent-01 vs old mice): 341%
titin-cap mRNA % increase (mouse stomach mRNA; old + Ent-01 vs old mice): 298%
mRNA levels for all of the genes in Table 4 (mouse stomach mRNA; old mice after treatment with squalamine): significant increase
absorption in blood [2]: less than 0.3%
Drug related adverse event Diarrhea, Mild, % [3]: (35) %
Drug related adverse event Diarrhea, Moderate, % [3]: (5.8) %
Drug related adverse event Diarrhea, Severe, % [3]: (2.9) %
Drug related adverse event Dizziness, Mild, % [3]: (20.5) %
Drug related adverse event Dizziness, Moderate, % [3]: (2.9) %
Drug related adverse event Nausea, Mild, % [3]: (47) %
Drug related adverse event Nausea, Moderate, % [3]: (2.9) %
Drug related adverse event Vomiting, Mild, % [3]: (5.8) %
Drug related adverse event Diarrhea, Mild, % [4]: (2.7) %
Drug related adverse event Diarrhea, Moderate, % [4]: (2.7) %
Drug related adverse event Diarrhea, Severe, % [4]: (2.7) %
Drug related adverse event Dizziness, Mild, % [4]: (3) %
Drug related adverse event Nausea, Mild, % [4]: (6.3) %
Drug related adverse event Nausea, Moderate, % [4]: (2.7) %
Drug related adverse event Vomiting, Mild, % [4]: (2.7) %
Drug related adverse event Vomiting, Moderate, % [4]: (2.7) %
Unrelated adverse event Contusion*, Mild, % [4]: (2.1) %
Unrelated adverse event Dizziness, Mild, % [4]: (4.2) %
Unrelated adverse event Fall*, Mild, % [4]: (4.2) %
Unrelated adverse event Fall*, Moderate, % [4]: (2.1) %
Unrelated adverse event Pain*, Mild, % [4]: (2.1) %
Unrelated adverse event Pain*, Moderate, % [4]: (2.1) %
Unrelated adverse event Phlebotomy site irritation*, Mild, % [4]: (2.1) %
Unrelated adverse event Rectal burning, Mild, % [4]: (2.1) %
Unrelated adverse event Rib fracture*, Mild, % [4]: (2.1) %
Unrelated adverse event Squamous cell Ca*, Mild, % [4]: (2.1) %
Unrelated adverse event Syncope*, Moderate, % [4]: (2.1) %
initiation of aggregation of the α-synuclein protein (α-synuclein protein): inhibit the initiation of aggregation
gastrointestinal motility [5]: stimulates gastrointestinal motility
gastrointestinal motility [6]: not associated with increased gastrointestinal motility
patients with MMSE improvement of 3 or more points [7, 8]: 33%
patients with MMSE improvement of 4 or more points [7, 8]: 20%
patients with MMSE improvement of 5 or more points [7, 8]: 13%
patients with MMSE improvement of 6 or more points [7, 8]: 1/15
patients responding to drug treatment (increase in CSBM) ([7]; 29 patients with assessable bowel movements, 75 or 150 mg/daily, 25 days): About 80%
hallucinations ([7]; Phase 2(b), PD patients): reduction in hallucinations
sleep fragmentation ([7]; Phase 2(b), PD patients): decrease in sleep fragmentation
total sleep time ([7]; Phase 2(b), PD patients): increase in total sleep time
bowel function, MMSE scores, amount and quality of sleep, other neurological indices (UPDRS) ([7]; dose taken sitting or standing, compared to lying down): qualitative improvements
Unrelated adverse event Flu-like symptoms*, Mild, % ([7]; n = 47): (6.3) %
